Consider two compounds from US5004749A, “Concentrated aqueous solution of glutaraldehyde and 1,2-benzisothiazolin-3-one” (priority 1989, dated 1991).

In brackets after ≈: the same amount, converted by molar mass.

For data set [1], the system named is Acinetobacter calcoaceticus, Pseudomonas aeruginosa, Enterobacter cloacae and Escherichia coli. In words: MIC in calcium carbonate slurry, inoculated weekly, reduction to less than ten colony forming units/ml (Example 3). The settings on record: for MIC: Calcium Carbonate Slurry. It is filed as cell-based. Here is the method: Several forty gram samples of a calcium carbonate slurry (Gamma-Fil 90, available from the Georgia Marble Company) which were free of microbial growth, were prepared. These samples were divided into four groups. The first group was dosed with varying amounts of glutaraldehyde (in the form of a 50 percent aqueous solution); the second group was dosed with varying amounts of 1,2-benzisothiazolin-3-one the third group was dosed with varying amounts of glutaraldehyde (in the form of a 50 percent aqueous solution) and of 1,2-benzisothiazolin-3-one (in the form of Proxel® Press Paste) in a 14:1 ratio by weight of glutaraldehyde:BIT a fourth group was left untreated as a control. These samples were each inoculated three times on a weekly basis with an inoculum which contained the following microorganisms: Acinetobacter calcoaceticus, Pseudomonas aeruginosa, Enterobacter cloacae and Escherichia coli. The minimum inhibitory concentration (MIC) values were determined for preservative levels effective in reducing the contaminating microorganisms to less than ten colony forming units/ml for the first three groups. The number of colony forming units/ml in the control group was also determined.
(§1) The results for Examples 3 and 4 were quantified with respect to the synergy shown through the application of an equation described in Berenbaum, M.C. "A method for Testing for Synergy with Any Number of Agents" The Journal of Infectious Diseases, Vol 137, No. 2 pp 122-130 (February, 1978). The relevant equation is as follows: [formula]
(§2) If Z is less than 1, synergy is present. If Z equals 1, additive interaction is present. If Z is greater than 1, an antagonistic interaction is present.

In data set [2] the test system is microbial contamination. Nature of the data set: MIC in kaolin slurry with significant microbial spoilage, reduction to less than ten colony forming units/ml (Example 4). It is filed as cell-based. Here is the method:
A sample of kaolin slurry with significant microbial spoilage was dosed with a range of concentrations of 1,2-benzisothiazolin-3-one, glutaraldehyde, and 1,2-benzisothiazolin-3-one plus glutaraldehyde (1:14 weight ratio). A sample was included, antimicrobial free, for control purposes with determinations of the colony forming units/ml. MIC values (in parts per million of Active Ingredient) to reduce microbial contamination to less than ten colony forming units/ml were determined by the absence of detectable growth by dilution plate counts.
as §1, §2

Data set [3] is described as follows: physchem. The data set is classed as physicochemical. Here is the method: A pH 3.2 solution was attained by adding 12.5 ml of 0.2 M acetic acid to 100 ml of deionized water. The pH 4.8 solution was prepared by adding 22.5 ml of 0.2 M acetic acid plus 27.5 ml of 0.2 M sodium acetate brought to a total volume of 100 ml with deionized water. Finally the pH of 6.8 solution was created by adding 4.1 ml of 0.2 M sodium acetate plus 1 drop of 0.2 M acetic acid to 100 ml of deionized water. […] Employing the same buffering agents, solutions with 50% aqueous glutaraldehyde were prepared having pH's of 3.2, 4.8 and 6.8 respectively. A twenty ml solution having a pH of 3.2 was attained with 1.45 ml of acetic acid; the twenty ml solution having a pH of 4.8 contained acetic acid and sodium acetate in a 3:1 weight ratio and the twenty ml solution having a pH of 6.8 contained 1.25 g of sodium acetate. The solubility of BIT in each solution was determined as described above.

The format of data set [4] is physicochemical. Here is the method:
In order to compare the composition of the present invention with that disclosed in U.S. Pat. No. 4,539,071 (Clifford et al) a stable aqueous composition of isothiazolone, the following experiment was performed. To deionized water were added 0.2 percent cupric nitrate, 9 percent magnesium chloride and 15 percent magnesium nitrate, all in percent by weight.

Take `O=CCCCC=O` [Glutaraldehyde, glutaraldehyde]: the MIC is 250 mg/L in data set [1] (Week 1); 500 mg/L in data set [1] (Week 2); 500 mg/L in data set [1] (Week 3); 250 mg/L in data set [2] (24 h, 1 day); 150 mg/L in data set [2] (48 h, 2 days); 200 mg/L in data set [2] (72 h, 3 days). Besides, the MIC in data set [2] (168 h, 7 days) amounted to 250 mg/L. In addition, in data set [1] (calcium carbonate slurry, second and third challenges with microbial insults), the “antimicrobial activity/potency on repeated challenge (in words)” value is reported as “undergoes a reduction in antimicrobial activity”.

For the compound `O=c1[nH]sc2ccccc12` [BIT, 1,2-benzisothiazolin-3-one], the “solubility of 1,2-benzisothiazolin-3-one is increased by the addition of glutaraldehyde” value in data set [3] is recorded as “increased considerably”. Further, the solubility came out at 31.8 mg/mL (≈ 210 mM) in data set [3] (buffered 50% aqueous glutaraldehyde, pH 3.2); 33.8 mg/mL (≈ 224 mM) in data set [3] (buffered 50% aqueous glutaraldehyde, pH 4.8); 30.4 mg/mL (≈ 201 mM) in data set [3] (buffered 50% aqueous glutaraldehyde, pH 6.8); 3.2 mg/mL (≈ 21.2 mM) in data set [3] (buffered deionized water, pH 3.2); 1.1 mg/mL (≈ 7.28 mM) in data set [3] (buffered deionized water, pH 4.8); 0.4 mg/mL (≈ 2.65 mM) in data set [3] (buffered deionized water, pH 6.8). In addition, the MIC in data set [1] (Week 1) is 285 mg/L; in data set [1] (Week 2), over 570 mg/L; in data set [1] (Week 3), 380 mg/L; in data set [2] (24 h, 1 day), 178 mg/L; in data set [2] (48 h, 2 days), over 178 mg/L; in data set [2] (72 h, 3 days), over 178 mg/L. The MIC in data set [2] (168 h, 7 days) came to 133 mg/L. The “solubility of 1,2-benzisothiazolin-3-one” value in data set [4] was “essentially nil”.

In general, MIC refers to the lowest concentration that inhibits growth of the organism. A word on the solubility: it is the concentration that dissolves in the medium under given conditions. A higher solubility goes with a readily soluble substance.
